Reference: EP4813991A1 (iLeadBMS Co., Ltd., priority 2023, dated 2025)
pIC50: −log10 of the molar value.

Experiments:
Format in all cases: cell-based
NCI-N87 = assay: Gastric cancer cell proliferation inhibitory activity (Cell Counting Kit-8), NCI-N87; details: Homo sapiens, 72 hours, Cell Counting Kit-8, relative IC50
Protocol: (§1) Experiments were performed using six types of gastric cancer cell lines to measure the cell proliferation inhibitory ability of each Example compound. NCI-N87, SNU601, KATO-III, MKN1, and AGS cells were dispensed into a 96-well plate at 100 µL of cell suspension per well using RPMI1640 medium containing 10 % FBS and 1 % PS, followed by incubation in a cell incubator at 37 °C and 5 % CO2. HS746T cells were dispensed into a 96-well plate at 100 µL of cell suspension per well using DMEM medium containing 10 % FBS and 1 % PS, followed by incubation in a cell incubator at 37 °C and 5 % CO2. The next day, each Example compound dissolved and diluted in DMSO across 10 concentration ranges and a DMSO control group were treated on the cells for 72 hours. After completion of the compound treatment, 10 µL of Cell Counting Kit-8 (Dojindo) reagent was added to each well of the 96-well plate, followed by incubation for 2 hours. […] were measured after inserting the 96-well plate into an Envision plate reader […]. Relative IC50 values were calculated by fitting a dose-response curve using Graphpad PRISM software.
(§2) The gastric cancer cell proliferation inhibitory activities of the Example compounds measured by the method described above were evaluated according to the following criteria, and the results are presented in Table 20.

HCT116 = assay: Colorectal cancer cell proliferation inhibitory activity, HCT116; details: Homo sapiens, HCT-116; 72 hours, Cell Counting Kit-8, relative IC50
Protocol: as §1, with “seven” for “six”, “colorectal” for “gastric”, “DLD-1, LoVo, SW620, SW480, HCT116, HCT15,” for “NCI-N87, SNU601, KATO-III, MKN1,”, “HT29” for “AGS”, “RPMI1640” for “RPMI1640 medium containing 10 % FBS and 1 % PS, followed by incubation in a cell incubator at 37 °C and 5 % CO2. HS746T cells were dispensed into a 96-well plate at 100 µL of cell suspension per well using DMEM”
(§3) The colorectal cancer cell proliferation inhibitory activities of the Example compounds measured by the method described above were evaluated according to the following criteria, and the results are presented in Table 19.

LoVo = assay: Colorectal cancer cell proliferation inhibitory activity, LoVo; details: Homo sapiens, 72 hours, Cell Counting Kit-8, relative IC50
Protocol: as §1, with “seven” for “six”, “colorectal” for “gastric”, “DLD-1, LoVo, SW620, SW480, HCT116, HCT15,” for “NCI-N87, SNU601, KATO-III, MKN1,”, “HT29” for “AGS”, “RPMI1640” for “RPMI1640 medium containing 10 % FBS and 1 % PS, followed by incubation in a cell incubator at 37 °C and 5 % CO2. HS746T cells were dispensed into a 96-well plate at 100 µL of cell suspension per well using DMEM”
as §3

HS746T cells = assay: Gastric cancer cell proliferation inhibitory activity (Cell Counting Kit-8), HS746T; details: Homo sapiens, 72 hours, Cell Counting Kit-8, relative IC50
Protocol: as §1, §2

MIA-PaCa2-Control = assay: Pancreatic cancer cell proliferation inhibitory activity, MIA-PaCa2-Control; details: 72 hours, Cell Counting Kit-8, relative IC50
Protocol: (§4) Experiments were performed using three types of pancreatic cancer cell lines to measure the cell proliferation inhibitory ability of the compounds of the present invention. AsPC-1, MIA-PaCa2-Control, and Gemcitabine resistant-MIA-PaCa2 cells were dispensed into a 96-well plate at 100 uL of cell suspension per well using DMEM medium containing 10 % FBS and 1 % PS, followed by incubation in a cell incubator at 37 °C and 5 % CO2. The next day, the compound of Example 8 dissolved and diluted in DMSO across 10 concentration ranges and a DMSO control group were treated on the cells for 72 hours. After completion of the compound treatment, 10 µL of Cell Counting Kit-8 (Dojindo) reagent was added to each well of the 96-well plate, followed by incubation for 2 hours. […] were measured after inserting the 96-well plate into an Envision plate reader […]. Relative IC50 values were calculated by fitting a dose-response curve using Graphpad PRISM software.
(§5) The pancreatic cancer cell proliferation inhibitory activities of the Example compounds measured by the method described above were evaluated according to the following criteria, and the results are presented in Table 18.

A427 cells = assay: Lung cancer cell proliferation inhibitory activity, A427; details: Homo sapiens, A-427; 72 hours, Cell Counting Kit-8, relative IC50
Protocol: (§6) Experiments were performed using three types of lung cancer cell lines to measure the cell proliferation inhibitory ability of the compounds of the present invention. NCI-H23 and NCI-H358 cells were dispensed into a 96-well plate at 100 µL of cell suspension per well using RPM11640 medium containing 10 % FBS and 1 % PS, followed by incubation in a cell incubator at 37 °C and 5 % CO2. A427 cells were dispensed into a 96-well plate at 100 µL of cell suspension per well using DMEM medium containing 10 % FBS and 1 % PS, followed by incubation in a cell incubator at 37 °C and 5 % CO2. The next day, each Example compound (such as Example 8) dissolved and diluted in DMSO across 10 concentration ranges and a DMSO control group were treated on the cells for 72 hours. After completion of the compound treatment, 10 µL of Cell Counting Kit-8 (Dojindo) reagent was added to each well of the 96-well plate, followed by incubation for 2 hours. After inserting the 96-well plate into an Envision plate reader […], luminescence signals were measured. Relative IC50 values were calculated by fitting a dose-response curve using Graphpad PRISM software.
(§7) The lung cancer cell proliferation inhibitory activities of the Example compounds measured by the method described above were evaluated according to the following criteria, and the results are presented in Table 17.

DLD-1 = assay: Colorectal cancer cell proliferation inhibitory activity, DLD-1; details: Homo sapiens, 72 hours, Cell Counting Kit-8, relative IC50
Protocol: as §1, with “seven” for “six”, “colorectal” for “gastric”, “DLD-1, LoVo, SW620, SW480, HCT116, HCT15,” for “NCI-N87, SNU601, KATO-III, MKN1,”, “HT29” for “AGS”, “RPMI1640” for “RPMI1640 medium containing 10 % FBS and 1 % PS, followed by incubation in a cell incubator at 37 °C and 5 % CO2. HS746T cells were dispensed into a 96-well plate at 100 µL of cell suspension per well using DMEM”
as §3

AsPC-1 = assay: Pancreatic cancer cell proliferation inhibitory activity, AsPC-1; details: Homo sapiens, ASPC1; 72 hours, Cell Counting Kit-8, relative IC50
Protocol: as §4, §5

NCI-H358 cells = assay: Lung cancer cell proliferation inhibitory activity, NCI-H358; details: Homo sapiens, 72 hours, Cell Counting Kit-8, relative IC50
Protocol: as §6, §7

[1] = test system: Gemcitabine resistant-MIA-PaCa2 cells; assay: Pancreatic cancer cell proliferation inhibitory activity, Gemcitabine resistant-MIA-PaCa2; details: 72 hours, Cell Counting Kit-8, relative IC50
Protocol: as §4, §5

NCI-H23 = assay: Lung cancer cell proliferation inhibitory activity, NCI-H23; details: Homo sapiens, 72 hours, Cell Counting Kit-8, relative IC50
Protocol: as §6, §7

SNU601 = assay: Gastric cancer cell proliferation inhibitory activity (Cell Counting Kit-8), SNU601; details: SNU-601; 72 hours, Cell Counting Kit-8, relative IC50
Protocol: as §1, §2

KATO-III = assay: Gastric cancer cell proliferation inhibitory activity (Cell Counting Kit-8), KATO-III; details: Homo sapiens, 72 hours, Cell Counting Kit-8, relative IC50
Protocol: as §1, §2

- pIC50 (NCI-N87): ≥ 6.70
- pIC50 (HCT116): ≥ 6.70
- pIC50 (LoVo): ≥ 6.70
- pIC50 (HS746T cells): ≥ 6.70
- pIC50 (MIA-PaCa2-Control): ≥ 6.70
- pIC50 (A427 cells): ≥ 6.70
- pIC50 (DLD-1): ≥ 6.70
- pIC50 (AsPC-1): ≥ 6.70
- pIC50 (NCI-H358 cells): ≥ 6.70
- pIC50 [1]: ≥ 6.70
- pIC50 (NCI-H23): ≥ 6.70
- pIC50 (SNU601): ≥ 6.70
- pIC50 (KATO-III): ≥ 6.70
SMILES: CN1CCN(c2cc(NCc3nc4ccc(F)c(F)c4[nH]3)c3ncc(C(F)(F)F)n3n2)CC1 [Example 8, N-((6,7-difluoro-1H-benzo[d]imidazol-2-yl)methyl)-6-(4-methylpiperazin-1-yl)-3-(trifluoromethyl)imidazo[1,2-b]pyridazin-8-amine]
